In paper PMC5372986, “Diminished Antimicrobial Peptide and Antifungal Antibiotic Activities against Candida albicans in Denture Adhesive” (Antibiotics, 2017):
Converted amounts (≈) assume the structure as drawn. Structures can show the parent of a compound that is named as a salt. Where two headings read alike, the source gives them in different places.

What was measured:
C. albicans HMV4C = assay: microbe, parasite or virus in culture; settings: radial diffusion; for Activity in gels with 1.0% denture adhesive compared with gels without / Minimal inhibitory concentration (MIC): C. albicans HMV4C; for Activity in gels with 1.0% denture adhesive compared with gels without: result in words, Tukey HSD, 0.05 level; for MIC: Candida albicans, HMV4C; for MIC / Minimal inhibitory concentration (MIC): mean (standard error, n = 3)
Procedure: (§1) C. albicans strains ATCC 64124 and HMV4C were used and cultivated as previously described. Their identities were verified (State Hygienic Laboratory, University of Iowa Research Park, Coralville, IA, USA). These cultures were adjusted to contain 1.2–3.7 × 10^6 CFU/mL in Roswell Park Memorial Institute (RPMI) 1640 medium.
(§2) The denture adhesive used was a standard, over-the-counter gel containing poly sodium-calcium mixed partial salt, petrolatum, cellulose gum, and mineral oil and was prepared as previously described. Denture adhesive was too viscous to use directly and was diluted to 1.0% for incorporation into the radial diffusion assay.
(§3) Each agent was reconstituted in distilled water with 0.01% acetic acid for resuspension to keep the agent in solution. Two-fold dilutions were prepared.
(§4) The radial diffusion assays were performed as described with the following unique modifications. Underlay agarose gels were prepared with and without 1.0% denture adhesive in square petri dishes (Electron Microscopy Sciences, Hatfield, PA, USA). Plates without 1.0% adhesive contained 12.5 mL of 10.0 mM sodium phosphate buffer adjusted to pH 7.4, 12.5 mL of 2.0% agarose (Agarose LE, Roche Diagnostics Corporation, Indianapolis, IN, USA) in 10.0 mM sodium phosphate adjusted to pH 7.4, and 1.0 mL of C. albicans culture per plate. Plates with 1.0% adhesive contained 12.5 mL of 2.0% dental adhesive in 10.0 mM sodium phosphate adjusted to pH 7.4, 12.5 mL 2.0% agarose (Agarose LE, Roche Diagnostics Corporation, Indianapolis, IN, USA) in 10.0 mM sodium phosphate adjusted to pH 7.4, and 1.0 mL of C. albicans culture. Wells of 2.0 mm in diameter were created and filled with 5.0 µL of AMP or antifungal antibiotic dilution (n = three replications per test). A blank of 0.01% acetic acid in distilled water was also included. The plates were incubated at 37 °C for 3 h. After incubation, 10.0 mL of overlay containing 1.0% agarose in 10.0 mM phosphate buffer with 6.0% RPMI 1640, was added to each plate. The plates were incubated at 37 °C overnight. At 24 h, antimicrobial activity was determined by measuring the zone of clearance around the center of each well and extrapolating MIC as described.
(§5) When MICs fell outside the range of the assay, we considered the MIC to be equal to the highest concentration used in the assay. […] One-way fixed-effects ANOVA models were fit to the µM MIC values. Pairwise group comparisons were conducted using the method of Tukey’s Honest Significant Differences (HSD). A 0.05 level was used to determine statistically significant differences. All analyses were conducted using JMP (Version 10.0, SAS, Cary, NC, USA).

C. albicans ATCC 64124 = assay: microbe, parasite or virus in culture; settings: for Minimal inhibitory concentration (MIC) / Activity in gels with 1.0% denture adhesive compared with gels without: C. albicans ATCC 64124; for Activity in gels with 1.0% denture adhesive compared with gels without: result in words, Tukey HSD, 0.05 level; for MIC: Candida albicans
Procedure: as §1, §2, §3, §4, §5

Candida albicans = settings: broth microdilution, p < 0.05; cited from earlier work
Description: Candida species infections can cause complications for individuals with dentures, such as denture stomatitis.

[1] = 24 h, pH 7.4, read-out: Minimal inhibitory concentration (MIC), C. albicans HMV4C, Adhesive (1.0% denture adhesive in gel), pH 7.4, 37 °C, read at 24 h
[2] = 24 h, pH 7.4, read-out: Minimal inhibitory concentration (MIC), C. albicans HMV4C, No Adhesive, agarose in 10.0 mM sodium phosphate pH 7.4, 37 °C, read at 24 h
[3] = read-out: Minimal inhibitory concentration (MIC), C. albicans HMV4C, Adhesive (1.0% denture adhesive in gel)
[4] = read-out: Minimal inhibitory concentration (MIC), C. albicans HMV4C, No Adhesive
[5] = ATCC64124, 24 h, pH 7.4, read-out: Minimal inhibitory concentration (MIC), C. albicans ATCC 64124, Adhesive (1.0% denture adhesive in gel), radial diffusion, pH 7.4, 37 °C, read at 24 h, mean (standard error, n = 3)
[6] = ATCC64124, 24 h, pH 7.4, read-out: Minimal inhibitory concentration (MIC), C. albicans ATCC 64124, No Adhesive, radial diffusion, pH 7.4, 37 °C, read at 24 h, mean (standard error, n = 3)
[7] = ATCC64124, read-out: Minimal inhibitory concentration (MIC), C. albicans ATCC 64124, Adhesive (1.0% denture adhesive in gel), radial diffusion, mean (standard error, n = 3)
[8] = ATCC64124, read-out: Minimal inhibitory concentration (MIC), C. albicans ATCC 64124, No Adhesive, radial diffusion, mean (standard error, n = 3)

Row | SMILES | Activity in gels with 1.0% denture adhesive compared with gels without (C. albicans HMV4C) | MIC (C. albicans HMV4C; [1]) | MIC (C. albicans HMV4C; [2]) | MIC (C. albicans HMV4C; [3]) | MIC (C. albicans HMV4C; [4]) | Activity in gels with 1.0% denture adhesive compared with gels without (C. albicans ATCC 64124; radial diffusion) | MIC (C. albicans ATCC 64124; [5]) | MIC (C. albicans ATCC 64124; [6]) | MIC (C. albicans ATCC 64124; [7]) | MIC (C. albicans ATCC 64124; [8]) | Loss of antimicrobial activity in 1.0% denture adhesive (Candida albicans) | other results
1 | OC(Cn1cncn1)(Cn1cncn1)c1ccc(F)cc1F [Fluconazole] | same | 8.1 µg/mL | 3.9 µg/mL | 26.4 µM | 12.7 µM | same | > 1000 µg/mL | > 1000 µg/mL | > 3270 µM | > 3270 µM | did not | Minimal inhibitory concentration (MIC) (C. albicans ATCC 64124; in both gels with or without 1.0% denture adhesive): 3265.1 µM (≈ 1000 µg/mL); MIC (C. albicans ATCC 64124; ATCC64124, read-out: Minimal inhibitory concentration (MIC), C. albicans ATCC 64124, in both gels with or without 1.0% denture adhesive): > 1000 µg/mL
2 | [H]/N=C(\N/C(=N/[H])NCCCCCCNC(=N)NC(=N)Nc1ccc(Cl)cc1)Nc1ccc(Cl)cc1 [Chlorhexidine dihydrochloride] | same | 11.1 µg/mL | 5.7 µg/mL | 19.2 µM | 9.9 µM | same | 4.6 µg/mL | 6.9 µg/mL | 8 µM | 11.9 µM | did not | 
3 | CC[C@H](C)[C@@H]1NC(=O)[C@H](CO)NC(=O)[C@@H]2CCCN2C(=O)[C@H](C)NC(=O)CNC(=O)[C@H](CC(C)C)NC(=O)[C@H](CCCCN)NC(=O)[C@H](CCCCN)NC(=O)[C@H](CCSC)NC(=O)[C@H](CCCNC(=N)N)NC(=O)[C@H](Cc2c[nH]c3ccccc23)NC(=O)[C@H](CCC(N)=O)NC(=O)[C@H](Cc2c[nH]c3ccccc23)NC(=O)[C@H](CCCNC(=N)N)NC(=O)[C@H](CCCNC(=N)N)NC(=O)[C@@H](NC(=O)[C@H](CCCCN)NC(=O)[C@@H](N)Cc2ccccc2)CSSC[C@@H](C(=O)N[C@H](C(=O)N[C@@H](CCCNC(=N)N)C(=O)N[C@@H](CCCNC(=N)N)C(=O)N[C@@H](C)C(=O)N[C@@H](Cc2ccccc2)C(=O)O)C(C)C)NC(=O)[C@H]([C@@H](C)O)NC1=O [Lactoferricin B] | diminished activity |  |  |  |  | diminished activity |  |  |  |  | lost antimicrobial activity | 
4 | C[C@@H]1[C@H](O)[C@@H](C)/C=C/C=C/C=C/C=C/C=C/C=C/C=C/[C@H](O[C@@H]2O[C@H](C)[C@@H](O)[C@H](N)[C@@H]2O)C[C@@H]2O[C@](O)(C[C@@H](O)C[C@@H](O)[C@H](O)CC[C@@H](O)C[C@@H](O)CC(=O)O[C@H]1C)C[C@H](O)[C@H]2C(=O)O [Amphotericin B] | same | 6.2 µg/mL | 5.4 µg/mL | 6.7 µM | 5.8 µM | same | 16.6 µg/mL | 6 µg/mL | 18 µM | 6.5 µM | did not | 
5 | C[C@@H]1[C@H](O)[C@@H](C)/C=C/C=C/CC/C=C/C=C/C=C/C=C/C(O[C@H]2O[C@H](C)[C@@H](O)[C@H](N)[C@@H]2O)CC2O[C@](O)(CC(O)C(O)CCC(O)CC(O)CC(O)CC(=O)O[C@H]1C)CC(O)C2C(=O)O (stereo partly shown) [Nystatin] | diminished |  |  |  |  | diminished |  |  |  |  | did not | Minimal inhibitory concentration (MIC) (C. albicans HMV4C; Adhesive (1.0% denture adhesive in gel), pH 7.4, 37 °C, read at 24 h): 137.2 (8.2) µg/mL; Minimal inhibitory concentration (MIC) (C. albicans HMV4C; Adhesive (1.0% denture adhesive in gel)): 148.1 (8.9) µM; Minimal inhibitory concentration (MIC) (C. albicans HMV4C; No Adhesive, agarose in 10.0 mM sodium phosphate pH 7.4, 37 °C, read at 24 h): 9.4 (0.2) µg/mL; Minimal inhibitory concentration (MIC) (C. albicans HMV4C; No Adhesive): 10.2 (0.2) µM; Minimal inhibitory concentration (MIC) (C. albicans ATCC 64124; Adhesive (1.0% denture adhesive in gel), radial diffusion, pH 7.4, 37 °C, read at 24 h, mean (standard error, n = 3)): 61.0 (2.5) µg/mL; Minimal inhibitory concentration (MIC) (C. albicans ATCC 64124; Adhesive (1.0% denture adhesive in gel), radial diffusion, mean (standard error, n = 3)): 65.9 (2.7) µM; Minimal inhibitory concentration (MIC) (C. albicans ATCC 64124; No Adhesive, radial diffusion, pH 7.4, 37 °C, read at 24 h, mean (standard error, n = 3)): 9.7 (0.2) µg/mL; Minimal inhibitory concentration (MIC) (C. albicans ATCC 64124; No Adhesive, radial diffusion, mean (standard error, n = 3)): 10.5 (0.2) µM
